Seven compounds from patent US9839642B2, “Beta-tetrazolyl-propionic acids as metallo-beta-lactamase inhibitors” (priority 2014, dated 2017) can be followed below.

Experiment [1] relates to Escherichia coli expressing NDM-1 (CLB30005). Briefly: Antibiotic potentiation activity: synergistic concentration (MITC95) with imipenem, growth by OD600. The format is cell-based. The gist of the method:
(§1)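 MITC95 = lowest inhibitor concentration giving 95% growth inhibition, read by absorbance after 22–24 h at 35° C. Compound range 200 μM to 0.195 μM, imipenem fixed at 1 or 4 μg/ml, bacteria in 1.1×CAMHB from saline suspension diluted 1:100.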

Experiment [2] concerns Klebsiella pneumoniae expressing VIM-1 (IHMA599644). The experiment is described as above. The format is cell-based. In a few lines: as §1
Experiment [3] has as its system Escherichia coli expressing NDM-1 (CLB30016). The description is as above. The conditions noted are these: 95% inhibition of bacterial growth, strain CLB30016. The format is cell-based. The gist of the method: as §1
In experiment [4] the test system is Serratia marcescens expressing IMP-1 (CL5741). The experiment is described as above. It counts as cell-based. The gist of the method:
as §1

Another experiment addresses NDM-1 (Klebsiella pneumoniae, UniProt C7C422). The experiment is described as follows: Enzyme activity: determination of IC50, fluorescence assay with CCF2-FA substrate. The format is biochemical. The conditions noted are these: CCF2-FA 1.25 μM, 2 hours at 25° C., read-out: NDM1 IC50. The gist of the method: (§2)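 In pH 7 phosphate buffer (100 mM) with 10 μM ZnSO4 and 0.005% Tween-20, CCF2-FA substrate (1.25 μM final) was hydrolysed for 2 h at 25 °C by NDM-1, IMP-1 or VIM-1 at 1, 2 or 30 pM in the presence of inhibitor at 20–0.00063 μM. Emission 460 nm/excitation 405 nm; 4-parameter curve fit gave IC50.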

The target of a further experiment is VIM-1 (Pseudomonas aeruginosa, UniProt A0A0F7KYQ8). Described as above. It counts as biochemical. The conditions noted are these: CCF2-FA 1.25 μM, 2 hours at 25° C., read-out: VIM1 IC50. The gist of the method: as §2
In the next experiment the target is IMP-1 (Serratia marcescens, UniProt P52699). Described as above. It counts as biochemical. Conditions: CCF2-FA 1.25 μM, 2 hours at 25° C., read-out: IMP1 IC50. In a few lines: as §2
Chain of IMP-1 (P52699 19-246, looked up, species assumed): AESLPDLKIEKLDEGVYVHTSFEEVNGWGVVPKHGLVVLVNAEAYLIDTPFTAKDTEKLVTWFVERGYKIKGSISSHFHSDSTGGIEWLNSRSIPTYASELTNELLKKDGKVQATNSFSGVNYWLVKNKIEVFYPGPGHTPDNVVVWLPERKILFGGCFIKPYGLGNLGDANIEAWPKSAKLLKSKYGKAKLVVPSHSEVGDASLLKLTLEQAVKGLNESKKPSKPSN
The mark [5] stands for this setting: 95% inhibition of bacterial growth, strain CLB30005.
Setting [6] is: 95% inhibition of bacterial growth, strain IHMA599644.
Setting [7] is: 95% inhibition of bacterial growth, strain CL5741.
The mark [8] stands for this setting: E. coli CLB30005 (NDM-1), 95% inhibition of growth.
Where [9] appears, read: K. pneumoniae IHMA599644 (VIM-1), 95% inhibition of growth.
The mark [10] stands for this setting: S. marcescens CL5741 (IMP-1), 95% inhibition of growth.

SMILES strings stand for the structures. Read-outs that look alike come from different tables or passages of the source.

Chain of NDM-1 (C7C422 29-270, looked up, species assumed): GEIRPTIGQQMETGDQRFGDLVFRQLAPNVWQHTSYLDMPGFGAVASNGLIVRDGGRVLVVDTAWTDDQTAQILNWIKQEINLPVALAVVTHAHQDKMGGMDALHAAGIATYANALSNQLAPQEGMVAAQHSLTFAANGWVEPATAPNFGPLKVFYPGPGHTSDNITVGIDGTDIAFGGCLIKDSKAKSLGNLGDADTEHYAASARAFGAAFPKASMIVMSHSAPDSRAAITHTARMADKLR

By IC50 is commonly meant the concentration that inhibits the measured activity by half. On to `CCC[C@H](C(=O)O)[C@H](Cc1ccc(-c2ccc(N3CCNCC3)nc2)cc1)c1nn[nH]n1` [Example 199, (2S)-2-[(1S)-2-[4-(6-piperazin-1-ylpyridin-3-yl)phenyl]-1-(2H-tetrazol-5-yl)ethyl]pentanoic acid], for which the “NDM1 EC30005 MITC95” value in experiment [1] (setting [5]) amounted to 4.7 µM. Besides, the “VIM1 KP599644 MITC95” value in experiment [2] (setting [6]) worked out at 31 µM. Further, the “NDM1 EC30016 MITC95” value in experiment [3] is 9.4 µM. The “IMP1 SM5741 MITC95” value in experiment [4] (setting [7]) is 17 µM. Further, the half-inhibitory concentration (IC50) turned out to be 48 nM at NDM-1 (enzyme 1 pM), 7.4 nM at VIM-1 (enzyme 30 pM) and 110 nM on IMP-1 (enzyme 2 pM).
Turning to `CCC[C@H](C(=O)O)[C@H](Cc1ccc(-c2ccc(CN)cc2)cc1)c1nn[nH]n1` [Example 209, (2S)-2-[(1S)-2-[4′-(aminomethyl)biphenyl-4-yl]-1-(2H-tetrazol-5-yl)ethyl]pentanoic acid], the “NDM1 EC30005 MITC95” value in experiment [1] (setting [5]) amounted to 2.3 µM. Moreover, the “VIM1 KP599644 MITC95” value in experiment [2] (setting [6]) amounted to 12.5 µM. The “NDM1 EC30016 MITC95” value in experiment [3] turned out to be 6.2 µM. The “IMP1 SM5741 MITC95” value in experiment [4] (setting [7]) was 4.3 µM. In addition, the results for the 50% inhibitory concentration (IC50) at NDM-1 (enzyme 1 pM), at VIM-1 (enzyme 30 pM) and on IMP-1 (enzyme 2 pM) were 84 nM, 14 nM and 110 nM, respectively.
Consider `CCC[C@H](C(=O)O)[C@H](Cc1ccc(CCN2CCCC2=O)cc1)c1nn[nH]n1` [Example 253, (2S)-2-[(1S)-2-{4-[2-(2-oxopyrrolidin-1-yl)ethyl]phenyl}-1-(2H-tetrazol-5-yl)ethyl]pentanoic acid], for which the “NDM1 EC30005 MITC95” value in experiment [1] (setting [8]) was found to be 12.5 µM. Moreover, the “VIM1 KP599644 MITC95” value in experiment [2] (setting [9]) came to 50 µM. For the same compound, in experiment [4] (setting [10]), the “IMP1 SM5741 MITC95” value worked out at 38 µM. Also, the values for the IC50 at NDM-1 (NDM-1 enzyme 1 pM), on VIM-1 (VIM-1 enzyme 30 pM) and at IMP-1 (IMP-1 enzyme 2 pM) were 34 nM, 9.1 nM and 97 nM, respectively.
`CCC[C@H](C(=O)O)[C@H](Cc1ccc(CCCO)cc1)c1nn[nH]n1` [Example 254, (2S)-2-[(1S)-2-[4-(3-hydroxypropyl)phenyl]-1-(2H-tetrazol-5-yl)ethyl]pentanoic acid]: the “NDM1 EC30005 MITC95” value in experiment [1] (setting [8]) is 5.2 µM. The “VIM1 KP599644 MITC95” value in experiment [2] (setting [9]) came out at 25 µM. Also, the “IMP1 SM5741 MITC95” value in experiment [4] (setting [10]) is 31 µM. Besides, the results for the concentration for half-maximal inhibition (IC50) on NDM-1 (NDM-1 enzyme 1 pM), at VIM-1 (VIM-1 enzyme 30 pM) and at IMP-1 (IMP-1 enzyme 2 pM) were 37 nM, 9 nM and 180 nM, respectively.
With `CCC[C@H](C(=O)O)[C@H](Cc1ccc(CCC(O)CO)cc1)c1nn[nH]n1` (stereo partly drawn) [Example 255, (2S)-2-[(1S)-2-[4-(3,4-dihydroxybutyl)phenyl]-1-(2H-tetrazol-5-yl)ethyl]pentanoic acid], the “NDM1 EC30005 MITC95” value in experiment [1] (setting [8]) turned out to be 10.4 µM. In experiment [2] (setting [9]), the “VIM1 KP599644 MITC95” value stood at 50 µM. Moreover, the “IMP1 SM5741 MITC95” value in experiment [4] (setting [10]) came out at 18.8 µM. In addition, the results for the 50% inhibitory concentration (IC50) at NDM-1 (NDM-1 enzyme 1 pM), on VIM-1 (VIM-1 enzyme 30 pM) and at IMP-1 (IMP-1 enzyme 2 pM) were 44 nM, 12 nM and 190 nM, respectively.
Consider `CCC[C@H](C(=O)O)[C@H](Cc1ccc(CCN2CCCCC2=O)cc1)c1nn[nH]n1` [Example 256, (2S)-2-[(1S)-2-{4-[2-(2-oxopiperidin-1-yl)ethyl]phenyl}-1-(2H-tetrazol-5-yl)ethyl]pentanoic acid], for which the “NDM1 EC30005 MITC95” value in experiment [1] (setting [8]) was found to be 10.4 µM. Further, the “VIM1 KP599644 MITC95” value in experiment [2] (setting [9]) turned out to be 150 µM. In addition, the “IMP1 SM5741 MITC95” value in experiment [4] (setting [10]) was found to be 6.2 µM. Further, the IC50 on NDM-1 (NDM-1 enzyme 1 pM) is 27 nM; on VIM-1 (VIM-1 enzyme 30 pM), 16 nM; on IMP-1 (IMP-1 enzyme 2 pM), 45 nM.
Take `CCC[C@H](C(=O)O)[C@H](Cc1ccc(C[C@@H]2CCCOC2)cc1)c1nn[nH]n1` [Example 257, (2S)-2-[(1S)-2-{4-[(3S)-tetrahydro-2H-pyran-3-ylmethyl]phenyl}-1-(2H-tetrazol-5-yl)ethyl]pentanoic acid]: the “NDM1 EC30005 MITC95” value in experiment [1] (setting [8]) was 7.3 µM. The “VIM1 KP599644 MITC95” value in experiment [2] (setting [9]) was 200 µM. In addition, the “IMP1 SM5741 MITC95” value in experiment [4] (setting [10]) was found to be 6.2 µM. For the same compound, the 50% inhibitory concentration (IC50) came out at 13 nM on NDM-1 (NDM-1 enzyme 1 pM), 14 nM at VIM-1 (VIM-1 enzyme 30 pM) and 33 nM on IMP-1 (IMP-1 enzyme 2 pM).
